# PMC10314905, “Architecture of a complete Bce-type antimicrobial peptide resistance module” (Nature Communications, 2023)
# T1: BceAB ABC transporter (BceA2:BceB1) (B. subtilis, UniProt O34697 2-253; O34741 1-646)
# T1 construct: BceA of Bacillus subtilis, as m1; BceB of Bacillus subtilis, as m2; The construct for isolated BceAB (without BceS) is not described here; also called BceAB transporter; isolated BceAB; source: E. coli C41(DE3), co-expressed (with or without BceS), purified (LMNG, Co3+-Talon, Superdex 200); not shown: His6, N-terminal, kept; copies: 2 + 1
# T1 sequence 1: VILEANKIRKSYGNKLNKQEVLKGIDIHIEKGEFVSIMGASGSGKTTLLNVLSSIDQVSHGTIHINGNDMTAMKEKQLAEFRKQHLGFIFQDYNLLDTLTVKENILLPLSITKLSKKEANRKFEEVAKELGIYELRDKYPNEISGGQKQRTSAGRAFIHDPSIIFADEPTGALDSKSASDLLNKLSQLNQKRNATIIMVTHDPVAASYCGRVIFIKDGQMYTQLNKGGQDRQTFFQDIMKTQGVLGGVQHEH
# T1 sequence 2: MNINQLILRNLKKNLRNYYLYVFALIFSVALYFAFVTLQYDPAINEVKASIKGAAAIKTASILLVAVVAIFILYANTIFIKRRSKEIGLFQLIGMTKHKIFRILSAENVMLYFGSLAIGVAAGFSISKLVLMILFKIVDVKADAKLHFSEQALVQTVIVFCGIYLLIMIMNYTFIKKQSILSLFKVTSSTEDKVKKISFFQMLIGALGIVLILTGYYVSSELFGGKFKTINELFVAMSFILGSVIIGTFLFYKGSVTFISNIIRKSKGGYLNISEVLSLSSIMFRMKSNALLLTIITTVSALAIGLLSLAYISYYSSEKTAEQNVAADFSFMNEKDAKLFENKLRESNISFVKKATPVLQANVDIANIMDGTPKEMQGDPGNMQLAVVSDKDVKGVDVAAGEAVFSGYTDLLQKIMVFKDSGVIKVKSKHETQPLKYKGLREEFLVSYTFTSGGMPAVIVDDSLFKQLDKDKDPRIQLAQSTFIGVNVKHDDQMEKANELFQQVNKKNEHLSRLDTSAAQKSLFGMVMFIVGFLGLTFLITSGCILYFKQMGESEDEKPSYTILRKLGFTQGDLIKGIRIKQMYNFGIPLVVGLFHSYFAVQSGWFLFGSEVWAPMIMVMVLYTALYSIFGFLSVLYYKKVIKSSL
# Experiments:
# BceAB-S complex [1] = biological target: T2, BceAB-S complex (Bacillus subtilis, UniProt O34697); parameters: gene bceA; conditions: MgCl2, 37 °C, 30 min, detergent solubilized
# T2 sequence (O34697 whole entry, one chain of several): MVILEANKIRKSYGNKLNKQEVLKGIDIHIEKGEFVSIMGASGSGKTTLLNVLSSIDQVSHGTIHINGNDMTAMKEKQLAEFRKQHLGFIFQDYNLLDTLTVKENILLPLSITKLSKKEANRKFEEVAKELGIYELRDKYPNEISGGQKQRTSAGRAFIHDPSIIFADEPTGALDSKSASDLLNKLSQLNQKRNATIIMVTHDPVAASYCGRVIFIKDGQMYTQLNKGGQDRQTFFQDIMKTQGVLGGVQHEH
# [2] = biological target: T3, BceAB (isolated transporter) (Bacillus subtilis, UniProt O34697); conditions: MgCl2, 37 °C, 30 min, detergent solubilized
# T3 construct: gene bceA
# T3 sequence (O34697 whole entry, one chain of several): as above
# BceAB-S complex [3] = biological target: T2, BceAB-S complex; assay: cryo-EM structure of the complex; assay type: binding; parameters: gene bceA; full-length; petDUET-1, E. coli C41(DE3); LMNG-solubilized; BceA:B:S 2:1:2; with Bacitracin export permease protein BceB; Sensor protein BceS; conditions: 5 mM ATPγS, 5 mM MgCl2, LMNG; bound at Walker A motif and Tyr13 of BceA
# [4] = biological target: the molecule itself; assay: cryo-EM structure; BceAB-S, co-expressed and co-purified complex in LMNG, incubated on ice with 5 mM ATPγS and 5 mM MgCl2 for 30 min before freezing
# [5] = biological target: T1, BceAB ABC transporter (BceA2:BceB1); assay: cryo-EM structure; nucleotide-free BceAB-S, co-expressed and co-purified complex in LMNG at ~7 mg/mL; Titan Krios, K3; conditions: both partners purified
# [6] = biological target: the molecule itself; assay: as above
molecule,measurement,setting,value
Nc1ncnc2c1ncn2[C@@H]1O[C@H](COP(=O)(O)OP(=O)(O)OP(=O)(O)O)[C@@H](O)[C@H]1O [ATP],colorimetric phosphate-release ATPase assay,BceAB-S complex [1],The BceAB-S complex displayed significantly reduced maximal ATPase activity
same,colorimetric phosphate-release ATPase assay,[2],significantly reduced maximal ATPase activity compared to the isolated BceAB transporter
Nc1ncnc2c1ncn2[C@@H]1O[C@H](COP(=O)(O)OP(=O)(O)OP(O)(O)=S)[C@@H](O)[C@H]1O [ATPγS],cryo-EM structure of the complex,BceAB-S complex [3],ATPγS engages the Walker-A motif and Tyr13 in the A-loop of BceA
"BceA, ATPase (nucleotide binding domain) subunit of the ABC transporter BceAB (natural protein, B. subtilis, BceA of Bacillus subtilis; gene PCR amplified from B. subtilis genomic DNA together with the overlapping bceB gene; Two copies of BceA stand in the BceAB-S complex (BceA:B:S 2:1:2); No cleavage of the His tag is told; also called BceA NBDs; BceA subunits; not shown: His6, N-terminal, kept) VILEANKIRKSYGNKLNKQEVLKGIDIHIEKGEFVSIMGASGSGKTTLLNVLSSIDQVSHGTIHINGNDMTAMKEKQLAEFRKQHLGFIFQDYNLLDTLTVKENILLPLSITKLSKKEANRKFEEVAKELGIYELRDKYPNEISGGQKQRTSAGRAFIHDPSIIFADEPTGALDSKSASDLLNKLSQLNQKRNATIIMVTHDPVAASYCGRVIFIKDGQMYTQLNKGGQDRQTFFQDIMKTQGVLGGVQHEH",binding result,[4],binds
"BceS sensor histidine kinase (natural protein, B. subtilis, UniProt O35044 1-334, looked up, BceS of Bacillus subtilis; gene PCR amplified from B. subtilis genomic DNA; Dimer in the BceAB-S complex; also called BceS kinase; BceS dimer) MIKAFLIERRSWIAAFLFQQALMLFIAFVDPSISFGNVLYMVYLCILFFIIFLWFRYRKETAFYKSLKTWENNLDVTAINEPETPFEAMVERSIAGQTEHLKQTAARHRLALENEKDELMAWIHEVKTPLTAMHLIIDRMEEKALKSQLSYEWLRIHLLLDQQLHQKRISFIENDLSVEFIQLQPLIFKEIKDLQSWCIQKGIGFDIQLEAKEVLSDAKWLAFIIRQLLTNAVKYSEASEIEIKSFQKGEQTQLQVKDCGRGIDPKDVPRIFDKGFTSTTDHHDQASTGMGLYLAKKAAAPLLIHIDVESEFGAGTVFTLTFPIRNQFEHVISV",stoichiometry N,[5],2 BceS per BceAB (BceA2:BceB1)
same,stoichiometry N,[6],2
